PubChem BioAssay (NCI)
“And” between values parts separate entries of the source, which are not always exact repeats. Identical values can stand only once.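 Briefly, cells in 96-well plates were exposed to five compound concentrations for 48 h, and endpoints were estimated by linear interpolation. At the GI50, growth is halved. TGI: total growth inhibition.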

Assays:
Assay in all cases: growth of human tumour cells (NCI), 48 h
[1] = test system: NCI-H460 lung
[2] = test system: SR leukemia
[3] = test system: SNB-19 CNS
[4] = test system: HCT-15 colon
[5] = test system: IGROV1 ovarian
[6] = test system: MOLT-4 leukemia
[7] = test system: KM12 colon
[8] = test system: UACC-257 melanoma
[9] = test system: TK-10 renal
[10] = test system: RXF 393 renal

| SMILES | GI50 [1] [µM] | TGI [1] [µM] | GI50 [2] | TGI [2] [µM] | GI50 [3] [µM] | TGI [3] [µM] | GI50 [4] | TGI [4] [µM] | GI50 [5] [µM] | TGI [5] [µM] | GI50 [6] | TGI [6] [µM] | GI50 [7] [µM] | TGI [7] [µM] | GI50 [8] [µM] | TGI [8] [µM] | GI50 [9] [µM] | TGI [9] [µM] | GI50 [10] [µM] | TGI [10] [µM] |
| --- | --- | --- | --- | --- | --- | --- | --- | --- | --- | --- | --- | --- | --- | --- | --- | --- | --- | --- | --- | --- |
| CCN(CC)CC(O)COc1c(Br)c(Br)c(Br)c2c1OC(C)(C)C2 (stereo unspecified) | 3.28 | 11.6 | 1.75 µM | 3.81 | 9.22 | 33.9 | 4.74 µM | 14.7 | 1.91 | 5.83 | 1.67 µM | 3.68 | 3.69 | 13.8 | 2.67 | 4.87 | 4.19 | 14.9 | – | – |
| COc1ncc(-c2ccc3nccc(C#CCN4CCN(S(C)(=O)=O)CC4)c3c2)cc1NS(=O)(=O)c1ccc(F)cc1F | 0.049 | 4.71 | 0.222 µM | 27 | 0.299 | 2.11 | 0.0614 µM | 1.62 | < 0.01 | 0.0333 | 0.0391 µM | 2.29 | 0.293 | 1.55 | 0.0386 | 0.517 | – | – | 0.0438 | 0.354 |
| Cc1ccc(NC(=O)c2nc(S(C)(=O)=O)oc2-c2ccc(F)cc2)cc1Nc1ccc2ncn(C)c(=O)c2c1 | 3.26 | 10.9 | – | – | 3.46 | 9.86 | – | – | – | – | – | – | 3.12 | 11.1 | 1.88 | 3.72 | 1.83 | 3.25 | – | – |
| CC(=O)SC(SC(C)=O)SC(C)=O | – | > 100 | – | – | – | > 100 | – | > 100 | – | > 100 | – | > 100 | – | > 100 | – | > 100 | – | > 100 | – | > 100 |
| COc1cc2c(cc1OCCCCn1c(-c3cccs3)nc3ccccc31)N=C[C@@H]1CCCN1C2=O | 1.55 | 4.38 | 0.45 µM | > 100 | 1.53 | 4.39 | 3.19 µM | 10.5 | 0.754 | 2.86 | 3.79 µM | > 100 | 1.92 | 5.38 | 2.54 | 5.9 | 2.09 | 6.74 | – | – |
| O=C(O)c1cn(C2CC2)c2cc(N3CCN(C(=O)Nc4nc(-c5ccc(Br)cc5)cs4)CC3)c(F)cc2c1=O | 1.09 | > 100 | 0.454 µM | > 100 | 1.41 | > 100 | 1.75 µM | > 100 | 3.38 | > 100 | 0.622 µM | > 100 | 1.93 | > 100 | – | – | – | – | 3.9 | > 100 |
| O=c1[nH]c(F)nc2c1ncn2C1OC(CO)C(O)C1O (stereo unspecified) | > 100 | > 100 | > 100 µM | > 100 | > 100 | > 100 | > 100 µM | > 100 | > 100 | > 100 | > 100 µM | > 100 | > 100 | > 100 | > 100 | > 100 | – | – | > 100 | > 100 |
| O=C(/C=C/c1nnc2n(Cc3ccccc3)c(=O)c3c4c(sc3n12)CCCC4)c1ccccc1 | > 100 | > 100 | 0.0522 µM and 0.217 µM | 0.658 | > 100 | > 100 | 2.04 µM and 0.389 µM | > 100 | > 100 | > 100 | 0.622 µM and 0.248 µM | 0.769 | 4.1 | – | – | – | 0.354 | 1.38 | – | – |
| CCOc1cc(/C=C/C(=O)C(C(=O)/C=C/c2ccc(OC(=O)CNc3nnc(C)s3)c(OCC)c2)C(=O)CNc2nnc(C)s2)ccc1OC(=O)CNc1nnc(C)s1 | 1.97 | 4.54 | 0.236 µM | 1.45 | 2.52 | 11.1 | 2.16 µM | 5.85 | – | – | 0.681 µM | 6.56 | 1.3 | 2.94 | 2.81 | 9.54 | 3.49 | 14.4 | 1.55 | 4.85 |
| O=C(O)c1ccc(C(=O)O)c(C(=O)O)c1.[NH-]C1CCCCC1[NH-].[Pt+2] | 0.889 | 19.1 | – | – | 11 | > 93.8 | 2.05 µM | 33.7 | 4.57 | 44.6 | 0.5 µM and 4.84 µM | 20 | 14.3 | 74.6 | 15.4 | 61.6 | 25.6 | 85.8 | 9.32 | 44.7 |
| CC1=NC=C(O)c2ccccc2O1 | – | > 100 | – | – | – | > 100 | – | > 100 | – | > 100 | – | > 100 | – | > 100 | – | > 100 | – | > 100 | – | > 100 |
| C#CCn1c(=O)c2cccnc2n(CC#C)c1=O | – | > 100 | – | > 100 | – | > 100 | – | > 100 | – | – | – | > 100 | – | > 100 | – | > 100 | – | > 100 | – | > 100 |
| O=C(Cc1ccccc1)N/N=C(/c1nc2ccc([N+](=O)[O-])cc2[nH]c1=O)C(O)c1ccc(C(O)/C(=N/NC(=O)Cc2ccccc2)c2nc3ccc([N+](=O)[O-])cc3[nH]c2=O)cc1 (stereo unspecified) | – | – | – | – | – | > 100 | – | > 100 | – | > 100 | – | – | – | – | – | > 100 | – | > 100 | – | > 100 |
| O=C(O)CCC1CCc2cccc(OCC(=O)O)c2C1=O (stereo unspecified) | – | > 100 | – | – | – | > 100 | – | > 100 | – | > 100 | – | > 100 | – | – | – | > 100 | – | > 100 | – | > 100 |
| NC1=NC2=C(CCCC2)C(c2cccs2)S1 (stereo unspecified) | – | > 100 | – | – | – | > 100 | – | > 100 | – | > 100 | – | > 100 | – | > 100 | – | > 100 | – | > 100 | – | > 100 |
| CCCCCC#COC1CC(C)CC[C@@H]1C(C)C (stereo partly specified) | – | 55.4 | – | – | – | > 100 | – | > 100 | – | 79.5 | – | – | – | > 100 | – | > 100 | – | > 100 | – | 86.9 |
| Fc1ccc(C2SCc3nc4ccccc4n32)cc1F (stereo unspecified) | – | > 100 | – | – | – | > 100 | – | > 100 | – | > 100 | – | 56 | – | > 100 | – | > 100 | – | 82.3 | – | 80 |
